Assay results as given in patent US8242109B2, “Compositions and methods relating to novel compounds and targets thereof” (priority 2007, dated 2012).
Like-named read-outs stand apart in the source and are kept apart here.

What was measured:
Ramos cells = assay: Cytotoxicity in Ramos cells; type: cell-based; conditions: Homo sapiens, read-out: Ramos Cell EC50
Experimental: (§1) The compounds listed in Table 4 were tested for activity against F1F0-ATPase and cytotoxicity in Ramos cells. Inhibition of ATP synthesis and hydrolysis by the F1F0-ATPase was measured as described in K. M. Johnson et al., Chemistry & Biology 2005, 12, 485-496. Cytotoxicity in Ramos cells was measured as described in K. M. Johnson et al., Chemistry & Biology 2005, 12, 485-496, or using the alamarBlue™ Assay with fluorescence detection (U.S. Pat. No. 5,501,959) as supplied and described by Invitrogen (Carlsbad, Calif.).

F1F0-ATPase = molecular target: T1, F1F0-ATPase (Bos taurus, UniProt P13621); assay: Inhibition of ATP synthesis and hydrolysis by the F1F0-ATPase; type: biochemical
T1 construct: from tissue; host or cells: bovine sub-mitochondrial particles (SMPs)
Experimental: as §1

SMILES | EC50 (Ramos cells; cytotoxicity in Ramos cells) [µM] | IC50 (F1F0-ATPase; read-out: ATPase IC50) [µM] | IC50 (F1F0-ATPase) [µM] | EC50 (Ramos cells; Ramos) [µM]
CC(C)NC(=O)Nc1ccc(C2=NC(Cc3ccccc3Br)C(=O)Nc3ccc(Cl)cc32)cc1 (centres unmarked) [Compound 1, (Z)-1-(4-(3-(2-bromobenzyl)-7-chloro-2-oxo-2,3-dihydro-1H-benzo[e][1,4]diazepin-5-yl)phenyl)-3-isopropylurea] | < 5 | 5 to 10 | – | –
O=C(NCC(F)(F)F)Nc1ccc(C2=NC(Cc3ccccc3Cl)C(=O)Nc3ccc(Cl)cc32)cc1 (centres unmarked) [Compound 7, (Z)-1-(4-(7-chloro-3-(2-chlorobenzyl)-2-oxo-2,3-dihydro-1H-benzo[e][1,4]diazepin-5-yl)phenyl)-3-(2,2,2-trifluoroethyl)urea] | < 5 | < 5 | – | –
CC(C)NC(=O)Nc1ccc(C2=NC(Cc3ccccc3F)C(=O)Nc3ccc(Cl)cc32)cc1 (centres unmarked) [Compound 3, (Z)-1-(4-(7-chloro-3-(2-fluorobenzyl)-2-oxo-2,3-dihydro-1H-benzo[e][1,4]diazepin-5-yl)phenyl)-3-isopropylurea] | 5 to 10 | 5 to 10 | – | –
CCc1cccc(CC2N=C(c3ccc(O)cc3)c3cc(Cl)ccc3N(C)C2=O)c1 (centres unmarked) [Compound 26, (Z)-7-chloro-3-(3-ethylbenzyl)-5-(4-hydroxyphenyl)-1-methyl-1H-benzo[e][1,4]diazepin-2(3H)-one] | 5 to 10 | – | 5 to 10 | –
CN(C)CCNC(=O)Nc1ccc(C2=NC(Cc3ccccc3Br)C(=O)Nc3ccc(Cl)cc32)cc1 (centres unmarked) [Compound 12, (Z)-1-(4-(3-(2-bromobenzyl)-7-chloro-2-oxo-2,3-dihydro-1H-benzo[e][1,4]diazepin-5-yl)phenyl)-3-(2-(dimethylamino)ethyl)urea] | < 5 | 5 to 10 | – | –
CN1C(=O)C(Cc2cccc(Cl)c2)N=C(c2ccc(O)cc2)c2cc(Cl)ccc21 (centres unmarked) [Compound 39, (Z)-7-chloro-3-(3-chlorobenzyl)-5-(4-hydroxyphenyl)-1-methyl-1H-benzo[e][1,4]diazepin-2(3H)-one] | > 10 | – | > 10 | –
COCCNC(=O)Nc1ccc(C2=NC(Cc3ccccc3Cl)C(=O)Nc3ccc(Cl)cc32)cc1 (centres unmarked) [Compound 9, (Z)-1-(4-(7-chloro-3-(2-chlorobenzyl)-2-oxo-2,3-dihydro-1H-benzo[e][1,4]diazepin-5-yl)phenyl)-3-(2-methoxyethyl)urea] | < 5 | 5 to 10 | – | –
Cc1ccc(CC2N=C(c3ccc(O)cc3)c3cc(Cl)ccc3N(C)C2=O)cc1 (centres unmarked) [Compound 22, (Z)-7-chloro-5-(4-hydroxyphenyl)-1-methyl-3-(4-methylbenzyl)-1H-benzo[e][1,4]diazepin-2(3H)-one] | > 10 | – | > 10 | –
Cc1ccc(CC2N=C(c3ccc(O)cc3)c3cc(Cl)ccc3NC2=O)cc1 (centres unmarked) [Compound 21, (Z)-7-chloro-5-(4-hydroxyphenyl)-3-(4-methylbenzyl)-1H-benzo[e][1,4]diazepin-2(3H)-one] | – | – | 5 to 10 | 5 to 10
Cc1ccccc1CC1N=C(c2ccc(O)cc2)c2cc(Cl)ccc2NC1=O (centres unmarked) [Compound 17, (Z)-7-chloro-5-(4-hydroxyphenyl)-3-(2-methylbenzyl)-1H-benzo[e][1,4]diazepin-2(3H)-one] | – | – | 5 to 10 | 5 to 10
